Test results published in PMC10243363 (ACS chemical neuroscience, 2022).
Read-outs that look alike come from different tables or passages of the source.

How the values were obtained:
KOR [1] = biological target: T1, KOR (Mus musculus, UniProt P33534); test: Competitive radioligand binding assay, KOR; conditions: for Selectivity D/K: ratio of Ki DOR/KOR; for Selectivity M/K: ratio of Ki MOR/KOR
MOR [2] = biological target: T2, MOR (Mus musculus, UniProt P42866); test: Competitive radioligand binding assay, MOR; conditions: ratio of Ki DOR/MOR
KOR [3] = biological target: T1, KOR; test: [35S]-GTPγS binding assay, mKOR-CHO membrane; assay type: biochemical; conditions: mean ± SEM; for KOR %Emax: %Emax = 100 defined using 5 μM U50,488H; for EC50: read-out: KOR EC50
DOR = DOR (Mus musculus, UniProt P32300); test: [35S]-GTPγS binding assay, mDOR-CHO membrane; assay type: biochemical; conditions: mean ± SEM; for DOR %Emax: %Emax = 100 defined using 5 μM SNC80; for EC50: read-out: DOR EC50
MOR [4] = biological target: T2, MOR; test: [35S]-GTPγS binding assay, mMOR-CHO membrane; assay type: biochemical; conditions: mean ± SEM; for MOR %Emax: %Emax = 100 defined using Emax of 3 μM DAMGO; for EC50: read-out: MOR EC50
mice = test: Warm-water tail immersion; assay type: in vivo, mouse; conditions: for Antinociception potency ED50 (95% CL): 20 min after injection; for Antinociceptive effect (%MPE) in single-dose screening: 20 min, vs vehicle; for Blocking of the antinociception of 0.1 mg/kg NMF by selective antagonist: nor-BNI, β-FNA 10 mg/kg s.c. 24 h prior, NTI 15 mg/kg s.c. 30 min prior
[5] = cited from earlier work
[6] = Caco-2 permeability assay; conditions: human, Caco-2
[7] = cited from earlier work; remark: listed apart in the source
[8] = Weight change under chronic administration; conditions: 10 mg/kg s.c. twice daily, mice

| Compound | Selectivity D/K (KOR [1]) | Selectivity M/K (KOR [1]) | Selectivity D/M (MOR [2]) | KOR %Emax (KOR [3]) [%] | EC50 (KOR [3]) [nM] | DOR %Emax (DOR) [%] | EC50 (DOR) [nM] | MOR %Emax (MOR [4]) [%] | EC50 (MOR [4]) [nM] | further results |
| --- | --- | --- | --- | --- | --- | --- | --- | --- | --- | --- |
| Cl.O=C(/C=C/c1ccoc1)N[C@@H]1CC[C@@]2(O)[C@H]3Cc4cccc5c4[C@@]2(CCN3CC2CC2)[C@H]1O5 [Compound 14, (2E)-N-[6β-17-(Cyclopropylmethyl)-4,5α-epoxy-14-hydroxy-morphinan-6-yl]-3-(3-furanyl)-2-propenamide hydrochloride] | 345 | 26 | 14 | 97.9 ± 2.4 | 46 ± 6.8 | 107 ± 13 | 1500 ± 140 | 27.7 ± 1.1 | 167 ± 23 | Antinociception potency ED50 (95% CL) (mice; mice, s.c.): 3.827 (1.224 -11.97) mg/kg |
| Cl.O=C(/C=C/c1ccoc1)N[C@H]1CC[C@@]2(O)[C@H]3Cc4cccc5c4[C@@]2(CCN3CC2CC2)[C@H]1O5 [Compound 13, (2E)-N-[6α-17-(Cyclopropylmethyl)-4,5α-epoxy-14-hydroxy-morphinan-6-yl]-3-(3-furanyl)-2-propenamide hydrochloride] | 1.7 | 1.9 | 0.9 | 103 ± 2 | 135 ± 25 | 102 ± 8 | 714 ± 87 | 22.8 ± 2.1 | 283 ± 49 | Antinociceptive effect (%MPE) in single-dose screening (mice; 10 mg/kg s.c., mice): absence of antinociception |
| COC(=O)/C=C/C(=O)N[C@@H]1CC[C@@]2(O)[C@H]3Cc4ccc(O)c5c4[C@@]2(CCN3CC2CC2)[C@H]1O5 [β-FNA, reference compound] |  |  |  |  |  |  |  |  |  | Blocking of the antinociception of 0.1 mg/kg NMF by selective antagonist (mice): not able to block the antinociception |
| CN(C(=O)/C=C/c1ccoc1)[C@H]1CC[C@@]2(O)[C@H]3Cc4cccc5c4[C@@]2(CCN3CC2CC2)[C@H]1O5.Cl [Compound 15, (2E)-N-[6a-17-(Cyclopropylmethyl)-4,5a-epoxy-14-hydroxy-morphinan-6-yl]-3-(3-furanyl)-N-methyl-2-propenamide hydrochloride] | 249 | 21 | 12 | 98.4 ± 2.4 | 2.52 ± 0.38 | 108 ± 7 | 242 ± 28 | 55.8 ± 2.9 | 132 ± 10 | Antinociception potency ED50 (95% CL) (mice; mice, s.c.): 0.341 (0.196 - 0.604) mg/kg |
| CC(CCc1ccccc1)NCC(O)c1ccc(O)c(C(N)=O)c1 (stereo not shown) [Labetalol] |  |  |  |  |  |  |  |  |  | %fa: extent of absorption in humans [5]: 90%; %fa: extent of absorption in humans ([5]; listed as labetalol): 90%; Papp A→B at 10 µM [6]: 18.5 ± 0.3 ×10⁻⁶ cm/s; Papp B→A at 10 µM [6]: 34.2 ± 0.4 ×10⁻⁶ cm/s |
| CN(C(=O)/C=C/c1ccoc1)[C@@H]1CC[C@@]2(O)[C@H]3Cc4cccc5c4[C@@]2(CCN3CC2CC2)[C@H]1O5.Cl [Compound 16, (2E)-N-[6β-17-(Cyclopropylmethyl)-4,5α-epoxy-14-hydroxy-morphinan-6-yl]-3-(3-furanyl)-N-methyl-2-propenamide hydrochloride] | 343 | 42 | 8.1 | 94.6 ± 2.9 | 59 ± 7.1 | 107 ± 8 | 2100 ± 400 | 17.5 ± 4.4 | 1800 ± 1100 | Antinociception potency ED50 (95% CL) (mice; mice, s.c.): 1.610 (1.057 - 2.452) mg/kg |
| Oc1ccc2c3c1O[C@H]1c4[nH]c5c(c4C[C@@]4(O)[C@@H](C2)N(CC2CC2)CC[C@]314)C[C@@]1(O)[C@H]2Cc3ccc(O)c4c3[C@@]1(CCN2CC1CC1)[C@H]5O4 [nor-BNI, reference compound] |  |  |  |  |  |  |  |  |  | Blocking of the antinociception of 0.1 mg/kg NMF by selective antagonist (mice): able to reduce the antinociception |
| Cl.O=C(/C=C/c1ccoc1)N[C@@H]1CC[C@@]2(O)[C@H]3Cc4ccc(O)c5c4[C@@]2(CCN3CC2CC2)[C@H]1O5 [Compound 10, (2E)-N-[6β-17-(Cyclopropylmethyl)-3,14-dihydroxy-4,5α-epoxy-morphinan-6-yl]-3-(3-furanyl)-2-propenamide hydrochloride] | 26 | 1.8 | 15 | 95.2 ± 4.9 | 0.36 ± 0.02 | 103 ± 11 | 24.8 ± 4.7 | 40.8 ± 2.2 | 1.36 ± 0.14 | Antinociception potency ED50 (95% CL) (mice; mice, s.c.): 2.414 (1.720 - 3.388) mg/kg |
| CC(C)NCC(O)COc1cccc2ccccc12 (stereo not shown) [Propranolol] |  |  |  |  |  |  |  |  |  | Papp A→B at 10 µM [6]: 23.8 ± 0.4 ×10⁻⁶ cm/s; Papp B→A at 10 µM [6]: 25.6 ± 0.7 ×10⁻⁶ cm/s |
| Cl.O=C(/C=C/c1ccoc1)N[C@H]1CC[C@@]2(O)[C@H]3Cc4ccc(O)c5c4[C@@]2(CCN3CC2CC2)[C@H]1O5 [Compound 9, (2E)-N-[6α-17-(Cyclopropylmethyl)-3,14-dihydroxy-4,5α-epoxy-morphinan-6-yl]-3-(3-furanyl)-2-propenamide hydrochloride] | 10 | 0.6 | 16 | 73.7 ± 2.5 | 15.3 ± 1.9 | 108 ± 6 | 83.6 ± 28.8 | 25.9 ± 1.0 | 8.41 ± 0.98 | Antinociceptive effect (%MPE) in single-dose screening (mice; 10 mg/kg s.c., mice): no significant increase of %MPE |
| CNC(=C[N+](=O)[O-])NCCSCc1ccc(CN(C)C)o1 [Ranitidine] |  |  |  |  |  |  |  |  |  | %fa: extent of absorption in humans [5]: 50%; Papp A→B at 10 µM [6]: 0.5 ± 0.02 ×10⁻⁶ cm/s |
| Oc1ccc2c3c1O[C@H]1c4[nH]c5ccccc5c4C[C@@]4(O)[C@@H](C2)N(CC2CC2)CC[C@]314 [NTI, reference compound] |  |  |  |  |  |  |  |  |  | Blocking of the antinociception of 0.1 mg/kg NMF by selective antagonist (mice): able to reduce the antinociception |
| CC[C@@H]1CN2CCc3c([nH]c4cccc(OC)c34)[C@H]2C[C@@H]1/C(=C\OC)C(=O)OC [speciociliatine] |  |  |  |  |  |  |  |  |  | PPB [7]: 90-99% |
| CN1CC[C@]23c4c5ccc(O)c4O[C@H]2[C@@H](O)C=C[C@H]3[C@H]1C5 [Morphine, reference compound] |  |  |  |  |  |  |  |  |  | Duration of antinociception (mice; 10 mg/kg s.c., mice): approximately 3 hours; Time of peak antinociceptive effect (mice; time-course study, s.c., mice): around 0.5 h; Weight change [8]: lost weight significantly after only one day |
| mitragynine |  |  |  |  |  |  |  |  |  | PPB [7]: 90-99% |
